Tests used:
[1] = Human pharmacokinetic (PK) crossover study of caffeine versus d9-caffeine; plasma metabolites paraxanthine / paraxanthine-d6; type: in vivo; conditions: for elimination ½ life: estimated, over both dose levels (0.26 and 1.29 mmol caffeine or d9-caffeine), as metabolite in human plasma; for AUC(0-t) / Cmax / Tmax / half-life: human, plasma, plasma metabolite, arithmetic mean, healthy adults
Method: A double-blind, randomized, two-part, two-period crossover study was conducted to evaluate the pharmacokinetics of caffeine versus d9-caffeine (depicted as compound 14 within U.S. Pat. No. 10,582,716, the disclosure of which is incorporated herein by reference) and their respective metabolites at two dose levels in 20 healthy adult volunteers. A single dose of 50 mg (0.26 mmol) or 250 mg (1.29 mmol) of caffeine, or a molar-equivalent dose of d9-caffeine, were administered in aqueous solution with blood samples collected for up to 48 hours post-dose. Plasma concentrations of parent and metabolites were analyzed using validated LC-MS/MS methods. The pharmacokinetic parameters of the primary caffeine metabolite, paraxanthine, and its respective counterpart, paraxanthine-d6, were analyzed and are reported in Table 2. The elimination ½ life of paraxanthine was estimated at 5-8 hours, consistent with published literature. The elimination ½ life of paraxathine-d6 was estimated at >18-22 hours, a […] difference. […] The data from this study supports the administration of paraxanthine-d6 once daily to humans to prevent or treat various diseases and conditions.

[2] = Pharmacokinetic (PK) study in Sprague-Dawley rats, plasma, oral (gavage) dose; type: in vivo; conditions: rat; for AUC(0-t) / Cmax / Tmax: plasma, single oral (gavage) dose, fasted male Sprague Dawley rats, target dose 30 mg/kg (paraxanthine-d6 31 mg/kg, adjusted for MW)
Method: Two groups of fasted male Sprague-Dawley rats (12 animals per group) may be administered an oral single dose of paraxanthine in deionized water (Group 1) or paraxanthine-d6 (a compound of Formula (Ia)), in deionized water (Group 2) at a target dose level of […]. Serial blood samples may be collected from three animals per group per timepoint prior to dosing and at 0.25, 0.5, 1, 2, 3 4, 6, 8, 10, 12, and 14-hours post dose. No more than three blood samples may be collected from individual animals with the last sample being a terminal blood draw. Terminal brain samples may be collected from three animals per group at 1, 4, 8, and 14-hours post dose. Blood samples may be collected into tubes containing sodium heparin, and then processed for plasma and stored frozen until bioanalysis. Brain samples may be collected following the terminal blood collection, rinsed with saline, and stored frozen until bioanalysis. Plasma and brain samples may be analyzed for paraxanthine and paraxanthine-d6 (a compound of Formula (Ia)) concentration using a liquid chromatography-tandem mass spectrometry (LC-MS/MS) method. Non-compartmental pharmacokinetic parameter estimates may be calculated from the mean plasma concentration-time data. A pharmacokinetic (PK) study was conducted in Sprague-Dawley rats. Mean pharmacokinetic parameter estimates in plasma for paraxanthine and paraxanthine-d6 (a compound of Formula (Ia)) following an oral dose of paraxanthine or D6-paraxanthine to male Sprague-Dawley rats are reported in Table 1. […] The dose level for paraxanthine-d6 (a compound of Formula (Ia)) was adjusted to account for molecular weight differences between paraxanthine (MW=180.17) and paraxanthine-d6 (MW=186.2).

[3] = single dose 0.26 mmol caffeine (paraxanthine) or 0.26 mmol d9-caffeine (paraxanthine-d6)
[4] = single dose 1.29 mmol caffeine (paraxanthine) or 1.29 mmol d9-caffeine (paraxanthine-d6)

elimination ½ life [1]	AUC(0-t) [1, 3]	Cmax [1, 3]	Tmax [1, 3]	half-life [1, 3]	AUC(0-t) [1, 4]	Cmax [1, 4]	Tmax [1, 4]	half-life [1, 4]	AUC(0-t) [2]	Cmax [2]	Tmax [2]	elimination ½ life of paraxanthine-d6 compared with paraxanthine ([2]; in vivo)	Structure (SMILES)
5 to 8 h	31.5 µM·h	1620 nM	8.22 h	455 min	122 µM·h	7170 nM	7.5 h	344 min	170 µg·h/mL	38900 ng/mL	30 min		Cn1c(=O)[nH]c2ncn(C)c2c1=O [Paraxanthine, paraxanthine]
18 to 22 h	110 µM·h	2900 nM	21.1 h	> 1080 min	110 µM·h	2900 nM	21.1 h	> 1320 min	196 µg·h/mL	42400 ng/mL	30 min	no difference	[2H]C([2H])([2H])n1c(=O)[nH]c2ncn(C([2H])([2H])[2H])c2c1=O [Paraxanthine-d6, paraxanthine-d6]

— US20230355632A1, “DEUTERATED PARAXANTHINE AND USES THEREOF” (Lennham Pharmaceuticals, Inc., priority 2020, published 2023)
